Test results: patent publication US7928126B2, “Cyanopyridine derivative and use thereof as medicine” (Mitsubishi Tanabe Pharma Corporation, priority 2005, dated 2011)
Counter-ions that a name gives are not always drawn.

Key:
Format in all cases: biochemical
[1] = target: T1, Porcine brain tubulin protein (Sus scrofa, UniProt P02550+P02554); experiment: Tubulin polymerization assay (turbidity at 405 nm); conditions: 10 μM compound, maximum polymerization rate, 37° C.; read-out: inhibitory rate (%)
T1 construct: 3.3 mg/ml Porcine brain tubulin protein: Cytoskeleton; purchased Cytoskeleton; host or cells: porcine brain (tissue-derived)
Experimental: A tubulin polymerization reaction mixture (50 μL) (80 mM Pipes pH=6.9, 0.5 mM MgCl2, 1 mM EGTA, 1 mM GTP, 3.3 mg/ml Porcine brain tubulin protein: Cytoskeleton, 10 μM compound) was prepared in a 96 well flat bottom plate under ice-cooling. This was placed in a plate reader (IWAKI microplate reader, EZS-ABS) controlled to a temperature of 37° C., whereby a temperature dependent tubulin polymerization reaction was initiated. Since the turbidity of the reaction mixture increases as the tubulin polymerization proceeds, the absorbance at 405 nm was measured every other minute for 30 min to monitor the polymerization reaction. Of the 30 min measures, the three largest differences per min of turbidity (generally those immediately after start of the reaction) were taken, and the average of the three values was calculated and taken as the maximum polymerization rate. Inhibitory percent (%)=(C−T)/C×100 wherein T is the maximum polymerization rate of the reaction mixture containing the compound, and C is the maximum polymerization rate of the reaction mixture without the compound.

aurora 2 kinase = target: T2, aurora 2 kinase (Homo sapiens, UniProt O14965); experiment: Aurora 2 kinase assay (32P-ATP, peptide substrate LRRASLG); conditions: room temperature 60 min
T2 construct: The amplified gene encoding aurora 2 kinase was introduced into Escherichia coli expression vector pET32a; made in house; host or cells: Escherichia coli BL21R (Novagen), vector pET32a
T2 sequence (O14965 1-403): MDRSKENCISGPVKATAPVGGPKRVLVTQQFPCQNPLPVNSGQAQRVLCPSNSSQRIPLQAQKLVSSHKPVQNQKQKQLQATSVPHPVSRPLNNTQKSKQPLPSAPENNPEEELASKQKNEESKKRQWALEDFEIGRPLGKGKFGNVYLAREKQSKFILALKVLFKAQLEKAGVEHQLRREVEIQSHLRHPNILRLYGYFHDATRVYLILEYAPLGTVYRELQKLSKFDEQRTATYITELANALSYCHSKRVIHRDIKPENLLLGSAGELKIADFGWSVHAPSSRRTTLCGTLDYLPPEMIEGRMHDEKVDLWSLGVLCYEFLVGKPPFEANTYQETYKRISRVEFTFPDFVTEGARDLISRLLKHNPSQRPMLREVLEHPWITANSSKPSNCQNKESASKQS

aurora 1 kinase = target: T3, aurora 1 kinase (Homo sapiens, UniProt Q96GD4); experiment: Aurora 1 kinase assay (32P-ATP, peptide substrate LRRWSLG); conditions: room temperature 60 min
T3 construct: purchased UPSTATE
T3 sequence (Q96GD4 whole entry): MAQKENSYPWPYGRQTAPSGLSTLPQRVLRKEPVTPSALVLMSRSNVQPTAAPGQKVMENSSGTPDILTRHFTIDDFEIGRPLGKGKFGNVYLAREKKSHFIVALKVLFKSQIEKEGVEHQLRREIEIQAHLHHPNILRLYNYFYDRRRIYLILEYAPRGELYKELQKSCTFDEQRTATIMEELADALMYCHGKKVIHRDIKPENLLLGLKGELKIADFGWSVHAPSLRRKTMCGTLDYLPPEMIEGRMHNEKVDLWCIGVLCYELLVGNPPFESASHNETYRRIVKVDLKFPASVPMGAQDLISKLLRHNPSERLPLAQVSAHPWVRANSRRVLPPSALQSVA

T1 sequence (P02550 whole entry): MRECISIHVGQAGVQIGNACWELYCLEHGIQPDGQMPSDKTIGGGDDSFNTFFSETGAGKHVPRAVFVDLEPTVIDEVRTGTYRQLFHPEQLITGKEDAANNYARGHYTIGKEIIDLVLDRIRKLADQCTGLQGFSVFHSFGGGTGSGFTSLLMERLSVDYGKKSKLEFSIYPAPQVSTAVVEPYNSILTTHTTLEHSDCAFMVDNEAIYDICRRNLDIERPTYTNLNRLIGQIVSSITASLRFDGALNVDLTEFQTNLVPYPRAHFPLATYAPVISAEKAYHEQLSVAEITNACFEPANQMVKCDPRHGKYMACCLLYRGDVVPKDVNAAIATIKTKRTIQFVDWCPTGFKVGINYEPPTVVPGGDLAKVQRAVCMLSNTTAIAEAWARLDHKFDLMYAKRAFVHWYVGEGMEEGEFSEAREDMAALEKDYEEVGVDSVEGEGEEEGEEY
T1 sequence (P02554 whole entry): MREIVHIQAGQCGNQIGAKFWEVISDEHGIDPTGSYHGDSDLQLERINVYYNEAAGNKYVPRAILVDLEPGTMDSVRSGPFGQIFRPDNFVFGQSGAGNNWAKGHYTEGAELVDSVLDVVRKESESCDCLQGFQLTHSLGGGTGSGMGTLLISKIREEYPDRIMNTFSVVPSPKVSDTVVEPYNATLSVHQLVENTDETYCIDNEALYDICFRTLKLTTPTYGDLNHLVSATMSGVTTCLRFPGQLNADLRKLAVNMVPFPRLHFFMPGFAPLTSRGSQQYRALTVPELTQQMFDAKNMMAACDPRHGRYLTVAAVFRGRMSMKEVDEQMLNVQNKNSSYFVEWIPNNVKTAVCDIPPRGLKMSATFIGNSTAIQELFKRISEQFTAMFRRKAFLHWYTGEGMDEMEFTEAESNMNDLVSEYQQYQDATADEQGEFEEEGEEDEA

Row | Structure (SMILES) | inhibition at 10 µM [1] | Ki (aurora 2 kinase) | Ki (aurora 1 kinase)
1 | Cc1cc(Nc2cc(-c3ccccc3)c(C#N)c(NCCOc3ccccc3)n2)n[nH]1 [Example 1, 2-(2-phenoxyethylamino)-6-(5-methyl-1H-pyrazol-3-ylamino)-4-phenylnicotinonitrile] | 51% | 19 nM | –
2 | Cc1cc(Nc2cc(C(F)(F)F)c(C#N)c(NCCOc3ccccc3)n2)n[nH]1 [Example 3, 2-(2-phenoxyethylamino)-6-(5-methyl-1H-pyrazol-3-ylamino)-4-trifluoromethylnicotinonitrile] | 36% | 15 nM | –
3 | COc1ccc(-c2cc(Nc3cc(C)[nH]n3)nc(NCCOc3ccccc3)c2C#N)cc1 [Example 4, 2-(2-phenoxyethylamino)-6-(5-methyl-1H-pyrazol-3-ylamino)-4-(4-methoxyphenyl)nicotinonitrile] | 63% | 15 nM | –
4 | COc1ccc(OCCNc2nc(Nc3cc(C)[nH]n3)cc(C)c2C#N)cc1 [Example 5, 2-(2-(4-methoxyphenoxy)ethylamino)-6-(5-methyl-1H-pyrazol-3-ylamino)-4-methylnicotinonitrile hydrochloride] | 51% | 26 nM | –
5 | Cc1cc(Nc2cc(-c3cccnc3)c(C#N)c(NCCOc3ccccc3)n2)n[nH]1 [Example 6, 2-(2-phenoxyethylamino)-6-(5-methyl-1H-pyrazol-3-ylamino)-4-(pyridin-3-yl)nicotinonitrile] | < 0% | 3 nM | –
6 | Cc1cc(Nc2cc(C)c(C#N)c(NCCOc3ccccn3)n2)n[nH]1 [Example 7, 2-(2-(pyridin-2-yloxy)ethylamino)-6-(5-methyl-1H-pyrazol-3-ylamino)-4-methylnicotinonitrile dihydrochloride] | 63% | 6 nM | –
7 | COc1ccccc1OCCNc1nc(Nc2cc(C)[nH]n2)cc(C)c1C#N [Example 8, 2-(2-(2-methoxyphenoxy)ethylamino)-6-(5-methyl-1H-pyrazol-3-ylamino)-4-methylnicotinonitrile] | 42% | 6 nM | –
8 | Cc1cc(Nc2cc(C)c(C#N)c(NCCOc3ccc(F)cc3)n2)n[nH]1 [Example 10, 2-(2-(4-fluorophenoxy)ethylamino)-6-(5-methyl-1H-pyrazol-3-ylamino)-4-methylnicotinonitrile] | 44% | 3 nM | –
9 | Cc1cc(Nc2cc(C)c(C#N)c(NCCOc3ccncc3)n2)n[nH]1 [Example 11, 2-(2-(pyridin-4-yloxy)ethylamino)-6-(5-methyl-1H-pyrazol-3-ylamino)-4-methylnicotinonitrile] | 42% | 24 nM | –
10 | Cc1cc(Nc2cc(C)c(C#N)c(NCCOc3ccccc3F)n2)n[nH]1 [Example 13, 2-(2-(2-fluorophenoxy)ethylamino)-6-(5-methyl-1H-pyrazol-3-ylamino)-4-methylnicotinonitrile hydrochloride] | 69% | 2 nM | ≤ 100 nM
11 | Cc1cc(Nc2ccc(C#N)c(NCCOc3ccccc3)n2)n[nH]1 [Example 14, 2-(2-phenoxyethylamino)-6-(5-methyl-1H-pyrazol-3-ylamino)nicotinonitrile] | 55% | 3 nM | –
12 | Cc1cc(Nc2ccc(C#N)c(NCCOc3cccc(F)c3)n2)n[nH]1 [Example 15, 2-(2-(3-fluorophenoxy)ethylamino)-6-(5-methyl-1H-pyrazol-3-ylamino)nicotinonitrile] | 69% | 2 nM | –
13 | Cc1cc(Nc2cc(C)c(C#N)c(NCCOc3ccc(F)c(Cl)c3)n2)n[nH]1 [Example 16, 2-(2-(3-chloro-4-fluorophenoxy)ethylamino)-6-(5-methyl-1H-pyrazol-3-ylamino)-4-methylnicotinonitrile] | 65% | 3 nM | –
14 | Cc1cc(Nc2ccc(C#N)c(NCCOc3cccnc3)n2)n[nH]1 [Example 17, 2-(2-(pyridin-3-yloxy)ethylamino)-6-(5-methyl-1H-pyrazol-3-ylamino)nicotinonitrile] | 67% | 2 nM | –

Further lines, results first:

Row | inhibition at 10 µM [1] | Ki (aurora 2 kinase) | Ki (aurora 1 kinase) | Structure (SMILES)
15 | 79% | 2 nM | – | Cc1cc(Nc2cc(-c3cccnc3)c(C#N)c(NCCOc3cccc(F)c3)n2)n[nH]1 [Example 18, 2-(2-(3-fluorophenoxy)ethylamino)-6-(5-methyl-1H-pyrazol-3-ylamino)-4-(pyridin-3-yl)nicotinonitrile dihydrochloride]
16 | 59% | 1 nM | – | Cc1cc(Nc2ccc(C#N)c(NCCOc3ccccc3F)n2)n[nH]1 [Example 19, 2-(2-(2-fluorophenoxy)ethylamino)-6-(5-methyl-1H-pyrazol-3-ylamino)nicotinonitrile hydrochloride]
17 | 75% | 2 nM | – | Cc1cc(Nc2cc(C)c(C#N)c(NCCOc3cc(F)cc(F)c3)n2)n[nH]1 [Example 20, 2-(2-(3,5-difluorophenoxy)ethylamino)-6-(5-methyl-1H-pyrazol-3-ylamino)-4-methylnicotinonitrile hydrochloride]
18 | 73% | 1 nM | – | Cc1cc(Nc2cc(C)c(C#N)c(NCCOc3ccccc3Cl)n2)n[nH]1 [Example 24, 2-(2-(2-chlorophenoxy)ethylamino)-6-(5-methyl-1H-pyrazol-3-ylamino)-4-methylnicotinonitrile hydrochloride]
19 | 51% | 2 nM | ≤ 100 nM | Cc1cc(Nc2ccc(C#N)c(NCCOc3ccccc3Cl)n2)n[nH]1 [Example 25, 2-(2-(2-chlorophenoxy)ethylamino)-6-(5-methyl-1H-pyrazol-3-ylamino)nicotinonitrile hydrochloride]
20 | 48% | 13 nM | – | COc1ccc(-c2cc(Nc3cc(C)[nH]n3)nc(NCCOc3ccccc3Cl)c2C#N)cc1 [Example 26, 2-(2-(2-chlorophenoxy)ethylamino)-6-(5-methyl-1H-pyrazol-3-ylamino)-4-(4-methoxyphenyl)nicotinonitrile hydrochloride]
21 | 57% | 3 nM | ≤ 100 nM | Cc1ccc(OCCNc2nc(Nc3cc(C)[nH]n3)ccc2C#N)cn1 [Example 27, 2-(2-(6-methylpyridin-3-yloxy)ethylamino)-6-(5-methyl-1H-pyrazol-3-ylamino)nicotinonitrile dihydrochloride]
22 | 42% | 66 nM | – | Cc1ccc(OCCNc2nc(Nc3cc(C)[nH]n3)ccc2C#N)c(C)n1 [Example 29, 2-(2-(2,6-dimethylpyridin-3-yloxy)ethylamino)-6-(5-methyl-1H-pyrazol-3-ylamino)nicotinonitrile dihydrochloride]
23 | 34% | 80 nM | – | Cc1cc(Nc2ccc(C#N)c(NCCOc3ccc(OC(F)(F)F)cc3)n2)n[nH]1 [Example 30, 2-(2-(4-(trifluoromethoxy)phenoxy)ethylamino)-6-(5-methyl-1H-pyrazol-3-ylamino)nicotinonitrile]
24 | – | – | ≤ 100 nM | Cc1cc(Nc2cc(C3CC3)n[nH]2)nc(NCCOc2cccnc2)c1C#N [Example 34, 6-(5-cyclopropyl-1H-pyrazol-3-ylamino)-4-methyl-2-(2-(pyridin-3-yloxy)ethylamino)nicotinonitrile]
25 | – | – | ≤ 100 nM | Cc1cc(Nc2cc(C(C)C)n[nH]2)nc(NCCOc2cccnc2)c1C#N [Example 35, 6-(5-isopropyl-1H-pyrazol-3-ylamino)-4-methyl-2-(2-(pyridin-3-yloxy)ethylamino)nicotinonitrile]
